From patent US8865864B2, “Mutant epidermal growth factor polypeptides with improved biological activity and methods of their making and use” (The Board of Trustees of the Leland Stanford Junior …, priority 2011, dated 2014) come the findings set out here.

The subject of test [1] is BJ-5ta cells. Briefly: Cell proliferation assay ([3H]TdR incorporation). Particulars: for level of cell proliferation ([3H]TdR incorporation): 1 nM dose, CFPS-produced protein. It is filed as cell-based, human.
Experimental: BJ-5ta cells, human immortalized foreskin fibroblast cells that express human EGFR (American Type Culture Collection), were plated in 96-well plates at a density of 2500 cells per well in 100 μl of full medium [Dulbecco's modified Eagle's medium (DMEM)] supplemented with 1% penicillin/streptomycin (Pen/Strep), 1% I-glutamine, 1% sodium pyruvate, 20% M199, and 10% fetal bovine serum. All cell culture reagents were from invitrogen. After 24 h, cells were serum-starved for 48 h in serum-free medium (DMEM supplemented with 1% Pen/Strep, 1% I-glutamine, 1% sodium pyruvate, and 20% M199). The medium was then replaced with 100 μl of serum-free medium containing the indicated concentrations of treatment protein.
When indicated, the standard serum-free medium used during protein treatment was replaced with advanced media (Advanced DMEM supplemented with 1% Pen/Strep, 1% I-glutamine, 1% sodium pyruvate, and 20% M199) or supplemented with human recombinant insulin. […]
[3H]TdR incorporation was measured 24 h later by freezing the plates at −80° C. overnight, thawing the plates at room temperature, harvesting the cells onto glass fiber filter mats (Perkin Elmer) with a Mach IIIM Harvester (Tomtec), and performing scintillation counting with a Wallac MicroBeta Counter (Perkin Elmer).
BJ5ta cells were plated in 96-well plates at densities of 2,500 cells/well (BJ5ta), in 100 μl of complete medium. […] 3H-TdR incorporation was measured 24 h later by freezing the cells overnight at −80° C. and harvesting the cells onto glass fiber filtermats (Perkin Elmer) using a Mach IIIM harvester (Tomtec). […]
BJ-5ta cells were plated in 96-well plates at a density of 5,000 cells/well and 2,500 cells/well, respectively, in 100 μl of medium. […] 3H-TdR incorporation was measured 24 h later by harvesting the cells onto glass fiber filtermats (Perkin Elmer, Waltham, Mass.) using a Mach IIIM harvester (Tomtec, Hamden, Conn.) and performing scintillation counting with a Wallac MicroBeta (Perkin Elmer, Waltham, Mass.).
The test system of test [2] is BJ5ta cells. Description: Chemotactic cell migration assay, BJ-5ta. It counts as cell-based, human. Particulars: 0.3 nM, 3-hour exposure.
Experimental: Non-migrated cells were removed by wiping the upper side of the membrane with a cotton swab. The transwells were washed three times with PBS, fixed with methanol, and stained with modified Giemsa. Pictures were taken of the migrated stained cells in nine random high-powered fields (20×) using light microscopy, and the number of migrated cells was counted.
Costar transwells (Corning 3422, 8.0 μm pores, 6.5 mm diameter) were coated on both sides with 10 μg/ml bovine fibronectin (Sigma F1141-2MG, 1 mg/ml) overnight at 4° C. in buffer (50 mM Tris-HCl, 500 mM NaCl, pH 7.5), Transwells were then washed 3 times with PBS, and then blocked with PBS with 1% BSA (PBS/BSA) at 37° C. for 1 hr prior to usage. […] Non-migrated cells were removed by wiping the upper side of the membrane with Q-tips. […] Pictures were taken of the migrated-stained cells in nine random high-powered fields (20×) using light microscopy, and the number of migrated cells was counted using ImageJ software.
Costar transwells (8.0 μm pores, 6.5 mm diameter) were coated on both sides with bovine fibronectin (10 μg/ml) overnight at 4° C. washed 3 times with PBS, and then blocked with 1% bovine serum albumin (BSA) in PBS at 37° C. for 1 h prior to usage. […] Pictures were taken of the migrated-stained cells in nine random high powered fields (20×) using light microscopy, and the number of migrated cells were counted.
In test [3] the test system is NR6WT cells. Briefly: Chemotactic cell migration assay, NR6WT. It is filed as cell-based, murine. Particulars: 0.3 nM, 3-hour exposure.
Experimental: (§1) Costar transwells (8.0 μm pores, 6.5 mm diameter) were coated on both sides with bovine fibronectin (10 μg/ml) overnight at 4° C. washed 3 times with PBS, and then blocked with 1% bovine serum albumin (BSA) in PBS at 37° C. for 1 h prior to usage. […] Non-migrated cells were removed by wiping the upper side of the membrane with a cotton swab. The transwells were washed three times with PBS, fixed with methanol, and stained with modified Giemsa. Pictures were taken of the migrated-stained cells in nine random high powered fields (20×) using light microscopy, and the number of migrated cells were counted.
Test [4] deals with BALB/3T3 cells. Description: Chemotactic cell migration assay, BALB/3T3. It counts as cell-based. The following applies: 0.3 nM, 3-hour exposure.
Experimental: as §1
The subject of test [5] is ErbB receptors expressed on the surface of CHO cells. Description: EGF ligand specificity on transfected CHO cells. It counts as binding. Particulars: 25 nM, 10 min, CHO cells individually expressing ErbB receptors.
Experimental: The binding specificities of wild-type and mutant EGF were determined by flow cytometry using CHO cells transfected with EGFR or other ErbB receptor family members. […] Cells were labeled with a FITC-conjugated antibody directed against the N-terminal FLAG epitope tag on EGF and analyzed by flow cytometry.
In test [6] the test system is hEGFR and mEGFR. Briefly: SPR pH titration binding (Example 3). Set-up: species or system human and murine. The following applies: 200 nM ligand, pH 5.0 to 8.5.
Experimental: pH titration binding experiments were performed at 25° C. in degassed buffer at various pHs ranging from 5.0 to 8.5. Wild-type and mutant EGF were diluted to 200 nM in pH buffer and flowed over the surface of the hEGFR sensorchip at a flow rate of 20 μL/min for 2 min. The hEGFR and mEGFR surfaces were regenerated as noted above. pH titration binding experiments were performed in triplicate at each pH over flow cells one and two for bath the hEGFR and mEGFR surfaces. The steady-state binding response was measured for each growth factor at the association phase plateau of the sensorgram.

“L47R: EGF point mutant, leucine 47 substituted with arginine, used in mock libraries (NSDSECPLSHDGYCLHDGVCMYIEALDKYACNCVVGYIGERCQYRDRKWWELR; not fully specified; Epidermal growth factor; UniProt P01133 971-1023, looked up, variant L47R)”: the “level of cell proliferation ([3H]TdR incorporation)” value in test [1] is “low”.
Same read-out and setting: to “L47D: EGF point mutant, leucine 47 substituted with aspartic acid, used in mock libraries (NSDSECPLSHDGYCLHDGVCMYIEALDKYACNCVVGYIGERCQYRDDKWWELR; not fully specified; Epidermal growth factor; UniProt P01133 971-1023, looked up, variant L47D)” belongs “intermediate”.
“m123: high-affinity mutant EGF SEQ ID NO:17: NSYSECPPSYDGYCLHDGVCRYIEALDSYACNCVVGYAGERCQYRDLRWWGRR”: in test [1] (varying concentrations, 72 hours), the “cell proliferation compared to wild-type EGF” value was “no significant changes in the levels of cell proliferation”. Further, the “chemotactic migration compared to wild-type EGF, BJ-5ta” value in test [2] is listed as “increased chemotactic migration”. Moreover, the “chemotactic migration compared to wild-type EGF, NR6WT” value in test [3] was “increased chemotactic migration”. For the same substance, in test [4], the “chemotactic migration compared to wild-type EGF, BALB/3T3” value is on record as “increased chemotactic migration”. In addition, the ErbB binding specificity result in test [5] is “bound specifically to EGFR but not to other ErbB receptor family members”. In addition, the “pH sensitivity of steady-state binding to EGFR” value in test [6] is listed as “much less so”.
